# From patent US10428070B2, “Hepatitis B antiviral agents” (Enanta Pharmaceuticals, Inc., priority 2017, dated 2019)
# Tested on: HBV
# Test: HepAD38 antiviral assay: reduction of viral product accumulation (virion DNA by qPCR, HBsAg or HBeAg by ELISA)
# Format: cell-based, hepatitis B virus
# Details: HepAD38 cells; harvest five days after compound addition; 50% reduction of viral product accumulation relative to no drug controls
# Method: Methods: HepAD38 cells are maintained as previously reported (Ladner et al, Antimicrob. Agents Chemother. 1997, […], 1715). Briefly, cells are passaged upon attaining confluency in DMEM/F12 media in the presence of 10% FBS, Penn/Strep, 250 μg/mL G418, and 1 μg/ml tetracycline. Novel compounds are screened by first washing cells three times with PBS to remove tetracycline, and plating in 96 well plates at 35,000 cells/well. Compounds dissolved in DMSO are then diluted 1:200 into wells containing cells. Five days after compound addition, material is harvested for analysis. For an extended 8 day analysis, cells are plated and treated as described above, but media and compound are refreshed on d2 and d5 post initial treatment.
# On harvest day, virion DNA is obtained by lysing with Sidestep Lysis and Stabilization Buffer and then quantified via quantitative real time PCR. Commercially available ELISA kits are used to quantitate the viral proteins HBsAg (Alpco) or HbeAg (US Biological) by following the manufacturer's recommended protocol after diluting samples to match the linear range of their respective assays.
row,Compound,EC50 [nM]
1,O=C(O)CCN1C(=O)OC[C@@]12CC1=C(c3ccn(C(F)F)n3)[C@H](c3ccc(F)cc3Cl)N=C(c3nccs3)N1C2 [Example 30],< 100
2,O=C(O)CCN1C(=O)OC[C@@]12CC1=C(c3ccn(C(F)F)n3)[C@H](c3ccc(F)cc3Cl)N=C(c3nccs3)N1C2 [Example 22],> 400

# Same assay, conditions: Hepatitis B virus, HePAD38, 120 h, HepAD38 cells; harvest five days after compound addition; 50% reduction of viral product accumulation relative to no drug controls
row,Compound,EC50 [nM]
1,O=C(O)CN1C(=O)OC[C@]12CC1=C(c3ccn(C(F)F)n3)[C@H](c3ccc(F)cc3Cl)N=C(c3nccs3)N1C2 [Example 28],> 400
2,O=C1OC[C@]2(CC3=C(c4ccn(C(F)F)n4)[C@H](c4ccc(F)cc4Cl)N=C(c4nccs4)N3C2)N1C[C@@H](O)CO [Example 35],100 to 400
3,CN1C(=O)OC[C@]12CC1=C(c3ccn(C(F)F)n3)[C@H](c3ccc(F)cc3Cl)N=C(c3nccs3)N1C2 [Example 26],< 100
4,O=C1NC[C@@]2(CC3=C(c4cnn(C(F)F)c4)[C@H](c4ccc(F)cc4Cl)N=C(c4nccs4)N3C2)N1 [Example 1],< 100
5,C=CCN1C(=O)OC[C@@]12CC1=C(c3ccn(C(F)F)n3)[C@H](c3ccc(F)cc3Cl)N=C(c3nccs3)N1C2 [Example 25],100 to 400
6,CCOC(=O)C1=C2C[C@]3(CNS(=O)(=O)N3)CN2C(c2nccs2)=N[C@H]1c1ccc(F)cc1Cl (relative stereo) [Example 16],< 100
7,CCOC(=O)C1=C2C[C@]3(COC(=O)N3)CN2C(c2nccs2)=N[C@H]1c1ccc(F)cc1Cl (relative stereo) [Example 12],< 100
8,O=C1NC[C@@]2(CC3=C(c4ccn(C(F)F)n4)[C@H](c4ccc(F)cc4Cl)N=C(c4nccs4)N3C2)O1 [Example 42],100 to 400
9,CCOC(=O)C1=C2C[C@@]3(CNC(=O)N3)CN2C(c2nccs2)=N[C@H]1c1ccc(F)cc1Cl (relative stereo) [Example 13],> 400
10,COC(=O)CN1C(=O)OC[C@@]12CC1=C(c3ccn(C(F)F)n3)[C@H](c3ccc(F)cc3Cl)N=C(c3nccs3)N1C2 [Example 23],100 to 400
11,O=S1(=O)NC[C@@]2(CC3=C(c4cnn(C(F)F)c4)[C@H](c4ccc(F)cc4Cl)N=C(c4nccs4)N3C2)N1 [Example 10],< 100
12,CC1OC(=O)N[C@]12CC1=C(c3ccn(C(F)F)n3)[C@H](c3ccc(F)cc3Cl)N=C(c3nccs3)N1C2 (stereo partly shown) [Example 38],< 100
13,O=S1(=O)NC[C@]2(CC3=C(c4cnn(C(F)F)c4)[C@H](c4ccc(F)cc4Cl)N=C(c4nccs4)N3C2)N1 [Example 5],< 100
14,C=CCN1C(=O)OC[C@]12CC1=C(c3ccn(C(F)F)n3)[C@H](c3ccc(F)cc3Cl)N=C(c3nccs3)N1C2 [Example 31],> 400
15,O=C1N[C@@]2(CO1)CC1=C(c3ccn(C(F)F)n3)[C@H](c3ccc(F)cc3Cl)N=C(c3nccs3)N1C2 [Example 17],< 100
16,O=C1NC[C@]2(CC3=C(c4ccn(C(F)F)n4)[C@H](c4ccc(F)cc4Cl)N=C(c4nccs4)N3C2)O1 [Example 41],100 to 400
17,C=CC1OC(=O)N[C@]12CC1=C(c3ccn(C(F)F)n3)[C@H](c3ccc(F)cc3Cl)N=C(c3nccs3)N1C2 (stereo partly shown) [Example 37],100 to 400
18,O=C1N[C@@]2(CO1)CC1=C(c3cnn(C(F)F)c3)[C@H](c3ccc(F)cc3Cl)N=C(c3nccs3)N1C2 [Example 3],< 100
19,Fc1ccc([C@@H]2N=C(c3nccs3)N3CC4(CCCCC4)CC3=C2c2cnn(C(F)F)c2)c(Cl)c1 [Example 9],< 100
20,CS(=O)(=O)OC1CCCC12CC1=C(c3cnn(C(F)F)c3)[C@H](c3ccc(F)cc3Cl)N=C(c3nccs3)N1C2 (stereo partly shown) [Example 6],100 to 400

row,Compound,EC50 [nM]
1,COC(=O)CCCN1C(=O)OC[C@]12CC1=C(c3ccn(C(F)F)n3)[C@H](c3ccc(F)cc3Cl)N=C(c3nccs3)N1C2 [Example 32],< 100
2,CCN1C(=O)OC[C@@]12CC1=C(c3ccn(C(F)F)n3)[C@H](c3ccc(F)cc3Cl)N=C(c3nccs3)N1C2 [Example 20],100 to 400
3,C=CCN1C[C@@]2(CC3=C(c4ccn(C(F)F)n4)[C@H](c4ccc(F)cc4Cl)N=C(c4nccs4)N3C2)OC1=O [Example 43],< 100
4,C/C=C/CN1C(=O)OC[C@]12CC1=C(c3ccn(C(F)F)n3)[C@H](c3ccc(F)cc3Cl)N=C(c3nccs3)N1C2 [Example 36],> 400
5,COCOCC1OC(=O)N[C@]12CC1=C(c3ccn(C(F)F)n3)[C@H](c3ccc(F)cc3Cl)N=C(c3nccs3)N1C2 (stereo partly shown) [Example 39],100 to 400
6,O=C1NC[C@]2(CC3=C(c4cnn(C(F)F)c4)[C@H](c4ccc(F)cc4Cl)N=C(c4nccs4)N3C2)N1 [Example 2],< 100
7,CC1OC(=O)N[C@@]12CC1=C(c3ccn(C(F)F)n3)[C@H](c3ccc(F)cc3Cl)N=C(c3nccs3)N1C2 (stereo partly shown) [Example 44],< 100
8,O=C1N[C@]2(CO1)CC1=C(c3ccn(C(F)F)n3)[C@H](c3ccc(F)cc3Cl)N=C(c3nccs3)N1C2 [Example 18],< 100
9,CCOC(=O)C1=C2C[C@@]3(COC(=O)N3)CN2C(c2nccs2)=N[C@H]1c1ccc(F)cc1Cl (relative stereo) [Example 11],< 100
10,CCOC(=O)C1=C2C[C@]3(CNC(=O)N3)CN2C(c2nccs2)=N[C@H]1c1ccc(F)cc1Cl (relative stereo) [Example 14],< 100
11,COC(=O)CN1C(=O)OC[C@]12CC1=C(c3ccn(C(F)F)n3)[C@H](c3ccc(F)cc3Cl)N=C(c3nccs3)N1C2 [Example 27],> 400
12,O=C(O)CN1C(=O)OC[C@@]12CC1=C(c3ccn(C(F)F)n3)[C@H](c3ccc(F)cc3Cl)N=C(c3nccs3)N1C2 [Example 24],> 400
13,O=C1OC[C@]2(CC3=C(c4ccn(C(F)F)n4)[C@H](c4ccc(F)cc4Cl)N=C(c4nccs4)N3C2)N1C[C@H](O)CO [Example 34],> 400
14,O=C1N[C@]2(CC3=C(c4ccn(C(F)F)n4)[C@H](c4ccc(F)cc4Cl)N=C(c4nccs4)N3C2)C(CO)O1 (stereo partly shown) [Example 40],< 100
15,O=C1N[C@]2(CO1)CC1=C(c3cnn(C(F)F)c3)[C@H](c3ccc(F)cc3Cl)N=C(c3nccs3)N1C2 [Example 4],< 100
16,COC(=O)CCN1C(=O)OC[C@@]12CC1=C(c3ccn(C(F)F)n3)[C@H](c3ccc(F)cc3Cl)N=C(c3nccs3)N1C2 [Example 21],> 400
17,O=C(O)CCCN1C(=O)OC[C@]12CC1=C(c3ccn(C(F)F)n3)[C@H](c3ccc(F)cc3Cl)N=C(c3nccs3)N1C2 [Example 33],100 to 400
18,CN1C(=O)OC[C@@]12CC1=C(c3ccn(C(F)F)n3)[C@H](c3ccc(F)cc3Cl)N=C(c3nccs3)N1C2 [Example 19],< 100
19,CCOC(=O)C1=C2C[C@@]3(CNS(=O)(=O)N3)CN2C(c2nccs2)=N[C@H]1c1ccc(F)cc1Cl (relative stereo) [Example 15],< 100

# Tested on: not listed separately
# Test: Compound toxicity, total ATP levels (ATPLite)
# Format: cell-based
# Details: human, HepG2 cells, three days after compound addition, 50% reduction of total ATP levels (ATPLite) relative to no drug controls
# Method: Compound toxicity is evaluated by seeding cells at 15,000 cells/well and treating with compound as described above.
row,Compound,CC50 at 3 days [nM]
1,O=S1(=O)NC[C@@]2(CC3=C(c4cnn(C(F)F)c4)[C@H](c4ccc(F)cc4Cl)N=C(c4nccs4)N3C2)N1 [Example 10],> 25000
2,O=C1N[C@@]2(CO1)CC1=C(c3ccn(C(F)F)n3)[C@H](c3ccc(F)cc3Cl)N=C(c3nccs3)N1C2 [Example 17],> 25000
3,O=C1N[C@@]2(CO1)CC1=C(c3cnn(C(F)F)c3)[C@H](c3ccc(F)cc3Cl)N=C(c3nccs3)N1C2 [Example 3],> 25000
4,C=CCN1C[C@@]2(CC3=C(c4ccn(C(F)F)n4)[C@H](c4ccc(F)cc4Cl)N=C(c4nccs4)N3C2)OC1=O [Example 43],> 25000
5,O=C1NC[C@]2(CC3=C(c4cnn(C(F)F)c4)[C@H](c4ccc(F)cc4Cl)N=C(c4nccs4)N3C2)N1 [Example 2],> 25000
6,O=C1N[C@]2(CO1)CC1=C(c3ccn(C(F)F)n3)[C@H](c3ccc(F)cc3Cl)N=C(c3nccs3)N1C2 [Example 18],> 25000
7,CN1C(=O)OC[C@@]12CC1=C(c3ccn(C(F)F)n3)[C@H](c3ccc(F)cc3Cl)N=C(c3nccs3)N1C2 [Example 19],> 25000
8,CCOC(=O)C1=C2C[C@@]3(CNS(=O)(=O)N3)CN2C(c2nccs2)=N[C@H]1c1ccc(F)cc1Cl (relative stereo) [Example 15],> 25000
